ChEMBL document CHEMBL1152921 (Eur J Med Chem, 2009)
Active and inactive are the calls of the source. No cut-off for these calls is given here. Where a SMILES comes first, the peptide text is derived from it. Bridges are numbered along the chain shown (N, C = ends). [ ]: non-standard residue; d: D form. Aic = NC1(C(=O)O)Cc2ccccc2C1

Columns and labels:
Rattus norvegicus [1] = assay: (§1) Antidiuretic activity in fasted and hydrated Wistar rat assessed as compound potency to yield antidiuresis time of 200 mins required for urinary excretion of half the water load at 0.001 to 100 nmol/kg, sc administered immediately after water loading by modified Burn test relative to 1-deamino-8-D-arginine vasopressin; format: functional, Urine
Rattus norvegicus [2] = assay: as §1, with “60” for “200”; format: functional, Urine
Rattus norvegicus [3] = assay: Antidiuretic activity in fasted and hydrated Wistar rat assessed as compound required to yield antidiuresis time of 60 mins required for urinary excretion of half the water load at 0.001 to 100 nmol/kg, sc administered immediately after water loading by modified Burn test; format: functional, Urine
Rattus norvegicus [4] = assay: Antidiuretic activity in fasted and hydrated Wistar rat assessed as compound required to yield antidiuresis time of 200 mins required for urinary excretion of half the water load at 0.001 to 100 nmol/kg, sc administered immediately after water loading by modified Burn test; format: functional, Urine
Vasopressin V1a receptor = Vasopressin V1a receptor (Rattus norvegicus, UniProt P30560); assay: Antagonist activity at vasopressin V1a receptor in phenoxybenzamine-treated Wistar rat uterus assessed as inhibition of vasopressin-induced arterial vasopressor activity treated 1 min prior to vasopressin challenge; format: functional, tissue-based; conditions: for Kb: read-out: pA2 (converted)
Sequence of Vasopressin V1a receptor (P30560 whole entry): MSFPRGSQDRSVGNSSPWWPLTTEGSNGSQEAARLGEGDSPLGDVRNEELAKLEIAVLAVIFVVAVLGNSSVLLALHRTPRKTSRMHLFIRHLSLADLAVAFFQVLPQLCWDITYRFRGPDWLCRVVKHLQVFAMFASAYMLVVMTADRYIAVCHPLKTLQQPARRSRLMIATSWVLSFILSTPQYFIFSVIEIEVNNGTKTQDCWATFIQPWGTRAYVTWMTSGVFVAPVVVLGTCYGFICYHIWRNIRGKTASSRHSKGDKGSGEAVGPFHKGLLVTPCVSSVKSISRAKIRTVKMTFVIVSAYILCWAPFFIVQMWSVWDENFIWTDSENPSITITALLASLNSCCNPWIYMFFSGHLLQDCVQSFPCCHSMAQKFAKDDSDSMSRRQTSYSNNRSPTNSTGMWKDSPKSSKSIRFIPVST

Rattus norvegicus [5] = assay: Activity at vasopressin V1a receptor in phenoxybenzamine-treated Wistar rat uterus assessed as induction of arterial vasopressor activity up to 0.15 mg/kg; format: functional, organism-based; set-up: dose 0.15 mg/kg
[6] = target: Vasopressin V1a receptor (Rattus norvegicus) (UniProt P30560); assay: Agonist activity at vasopressin V1a receptor in phenoxybenzamine-treated Wistar rat uterus assessed as arterial vasopressor activity; format: functional, tissue-based
Sequence of Vasopressin V1a receptor (Rattus norvegicus) (P30560 whole entry, looked up): as the sequence (P30560 whole entry) above

Oxytocin receptor = target: T1, Oxytocin receptor (Rattus norvegicus, UniProt P70536); format: functional, tissue-based, Wistar, Uterus
T1 sequence (P70536 whole entry): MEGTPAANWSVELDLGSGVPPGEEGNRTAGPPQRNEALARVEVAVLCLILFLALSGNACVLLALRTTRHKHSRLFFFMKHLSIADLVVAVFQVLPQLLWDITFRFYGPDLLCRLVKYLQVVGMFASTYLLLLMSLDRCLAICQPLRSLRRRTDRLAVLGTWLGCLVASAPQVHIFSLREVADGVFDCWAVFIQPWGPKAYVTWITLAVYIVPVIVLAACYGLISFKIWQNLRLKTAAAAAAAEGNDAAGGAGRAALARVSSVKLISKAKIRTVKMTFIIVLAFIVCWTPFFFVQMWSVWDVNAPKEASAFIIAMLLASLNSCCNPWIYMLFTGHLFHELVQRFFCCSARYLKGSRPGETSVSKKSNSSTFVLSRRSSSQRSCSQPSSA

[7] = Volume of distribution in Wistar rat; format: ADME, organism-based; conditions: in vivo

| Compound | Activity (Rattus norvegicus [1]) [%] | Activity (Rattus norvegicus [2]) [%] | Activity (Rattus norvegicus [3]) [IU/mg] | Activity (Rattus norvegicus [4]) [IU/mg] | Kb (Vasopressin V1a receptor) [nM] | Activity (Rattus norvegicus [5]) | Activity [6] [IU/mg] | pA2 (Oxytocin receptor) | pA2 (Vasopressin V1a receptor) | Vd [7] [L/kg] |
| --- | --- | --- | --- | --- | --- | --- | --- | --- | --- | --- |
| CC(C)[C@@H]1NC(=O)[C@H](Cc2ccccc2)NC(=O)[C@@H](C(c2ccccc2)c2ccccc2)NC(=O)CCSSC[C@@H](C(=O)N2CCC[C@H]2C(=O)N[C@H](CCCNC(=N)N)C(=O)NCC(N)=O)NC(=O)[C@H](CC(N)=O)NC1=O | 150 | 200 | 9000 | 450000 | > 1580 |  |  |  |  |  |
| N=C(N)NCCC[C@@H](NC(=O)[C@@H]1CCCN1C(=O)[C@@H]1CSSCCC(=O)N[C@@H](C(c2ccccc2)c2ccccc2)C(=O)N[C@@H](Cc2ccccc2)C(=O)N[C@@H](CCC(N)=O)C(=O)N[C@@H](CC(N)=O)C(=O)N1)C(=O)NCC(N)=O | 8 | 0.7 | 30 | 20000 |  | inactive |  |  |  |  |
| CC(C)[C@@H]1NC(=O)[C@H](Cc2ccccc2)NC(=O)[C@H](Cc2ccc(O)cc2)NC(=O)[C@@H](N)CSSC[C@@H](C(=O)N2CCC[C@H]2C(=O)N[C@@H](CCCNC(=N)N)C(=O)NCC(N)=O)NC(=O)[C@H](CC(N)=O)NC1=O (H-CYFVNCPRG-NH2; disulfide 1-6) |  |  | 758 |  |  |  | 32 |  |  |  |
| N=C(N)NCCCC(NC(=O)[C@@H]1CCCN1C(=O)[C@@H]1CSSCCC(=O)N[C@@H](Cc2ccc(O)cc2)C(=O)N[C@@H](Cc2ccccc2)C(=O)N[C@@H](CCC(N)=O)C(=O)N[C@@H](CC(N)=O)C(=O)N1)C(=O)NCC(N)=O (single isomer, unassigned) [DESMOPRESSIN] | 97.3 | 73.9 | 1300 |  |  |  |  |  |  |  |
| CC(C)[C@@H]1NC(=O)[C@H](Cc2ccccc2)NC(=O)[C@@H](C(c2ccccc2)c2ccccc2)NC(=O)CCSSC[C@@H](C(=O)N2CCC[C@H]2C(=O)N[C@@H](CCCNC(=N)N)C(=O)NCC(N)=O)NC(=O)[C@H](CC(N)=O)NC1=O (stereo in doubt) |  |  |  |  | > 1580 |  |  |  |  |  |
| CC(C)[C@@H]1NC(=O)[C@H](Cc2ccccc2)NC(=O)[C@H](C(c2ccccc2)c2ccccc2)NC(=O)CCSSC[C@@H](C(=O)N2CCC[C@H]2C(=O)N[C@H](CCCNC(=N)N)C(=O)NCC(N)=O)NC(=O)[C@H](CC(N)=O)NC1=O (stereo in doubt; form 2) | 150 | 100 | 4500 | 450000 |  |  |  |  |  |  |
| CC(C)[C@@H]1NC(=O)[C@H](Cc2ccccc2)NC(=O)[C@H](C(c2ccccc2)c2ccccc2)NC(=O)CCSSC[C@@H](C(=O)N2CCC[C@H]2C(=O)N[C@H](CCCNC(=N)N)C(=O)NCC(N)=O)NC(=O)[C@H](CC(N)=O)NC1=O (stereo in doubt; form 1) [listing 1 of 2 here] |  |  |  |  |  | inactive |  |  |  |  |
| N=C(N)NCCC[C@H](NC(=O)[C@@H]1CCCN1C(=O)[C@@H]1CSSCCC(=O)N[C@H](C(c2ccccc2)c2ccccc2)C(=O)N[C@@H](Cc2ccccc2)C(=O)N[C@@H](CCC(N)=O)C(=O)N[C@@H](CC(N)=O)C(=O)N1)C(=O)NCC(N)=O | 80 | 100 | 4500 | 200000 |  | inactive |  |  |  |  |
| N=C(N)NCCC[C@H](NC(=O)[C@@H]1CCCN1C(=O)[C@@H]1CSSC2(CCCCC2)CC(=O)N[C@H](C(c2ccccc2)c2ccccc2)C(=O)N[C@@H](Cc2ccccc2)C(=O)N[C@@H](CCC(N)=O)C(=O)N[C@@H](CC(N)=O)C(=O)N1)C(=O)NCC(N)=O |  |  |  |  |  |  |  | 6.83 | 7.4 |  |
| N=C(N)NCCC[C@H](NC(=O)[C@@H]1CCCN1C(=O)[C@@H]1CSSCCC(=O)NC(C(c2ccccc2)c2ccccc2)C(=O)N[C@@H](Cc2ccccc2)C(=O)N[C@@H](CCC(N)=O)C(=O)N[C@@H](CC(N)=O)C(=O)N1)C(=O)NCC(N)=O (single isomer, unassigned) | 18 | 10 | 450 | 45000 |  |  |  |  |  |  |
| N=C(N)NCCC[C@H](NC(=O)[C@@H]1CCCN1C(=O)[C@@H]1CSSC2(CCCCC2)CC(=O)N[C@@H](C(c2ccccc2)c2ccccc2)C(=O)N[C@@H](Cc2ccccc2)C(=O)N[C@@H](CCC(N)=O)C(=O)N[C@@H](CC(N)=O)C(=O)N1)C(=O)NCC(N)=O | <0.1 | <0.1 | <4.5 | <4.5 |  | inactive |  |  |  |  |
| N=C(N)NCCC[C@H](NC(=O)[C@@H]1CCCN1C(=O)[C@@H]1CSSC[C@H](N)C(=O)NC2(Cc3ccccc3C2)C(=O)N[C@@H](Cc2ccccc2)C(=O)N[C@@H](CCC(N)=O)C(=O)N[C@@H](CC(N)=O)C(=O)N1)C(=O)NCC(N)=O (H-C[Aic]FQNCPRG-NH2; disulfide 1-6) | 18 | 10 | 450 | 45000 |  |  | 9.4 |  |  |  |
| N=C(N)NCCC[C@@H](NC(=O)[C@@H]1CCCN1C(=O)[C@@H]1CSSCCC(=O)N[C@H](C(c2ccccc2)c2ccccc2)C(=O)N[C@@H](Cc2ccccc2)C(=O)N[C@@H](CCC(N)=O)C(=O)N[C@@H](CC(N)=O)C(=O)N1)C(=O)NCC(N)=O | 100 | 200 | 9000 | 225000 |  |  |  |  |  |  |
| N=C(N)NCCC[C@@H](NC(=O)[C@@H]1CCCN1C(=O)[C@@H]1CSSCCC(=O)N[C@@H](Cc2ccc(O)cc2)C(=O)N[C@@H](Cc2ccccc2)C(=O)N[C@@H](CCC(N)=O)C(=O)N[C@@H](CC(N)=O)C(=O)N1)C(=O)NCC(N)=O [DESMOPRESSIN] | 100 | 100 | 800 |  |  |  |  |  |  |  |
| N=C(N)NCCC[C@@H](NC(=O)[C@@H]1CCCN1C(=O)[C@@H]1CSSC[C@H](N)C(=O)N[C@@H](C(c2ccccc2)c2ccccc2)C(=O)N[C@@H](Cc2ccccc2)C(=O)N[C@@H](CCC(N)=O)C(=O)N[C@@H](CC(N)=O)C(=O)N1)C(=O)NCC(N)=O | 1.2 | 0.7 | 30 | 3000 |  | inactive |  |  |  |  |
| N=C(N)NCCC[C@H](NC(=O)[C@@H]1CCCN1C(=O)[C@@H]1CSSC[C@H](N)C(=O)N[C@@H](Cc2ccc(O)cc2)C(=O)N[C@@H](Cc2ccccc2)C(=O)N[C@@H](CCC(N)=O)C(=O)N[C@@H](CC(N)=O)C(=O)N1)C(=O)NCC(N)=O [VASOPRESSIN] | 0.125 | 10 | 450 | 450 |  |  |  |  |  | 0.067 |
| NC(=O)CC[C@@H]1NC(=O)[C@H](Cc2ccccc2)NC(=O)[C@H](Cc2ccc(O)cc2)NC(=O)[C@@H](N)CSSC[C@@H](C(=O)N2CCC[C@H]2C(=O)N[C@H](CCCN=C(N)N)C(=O)NCC(N)=O)NC(=O)[C@H](CC(N)=O)NC1=O | 1.7 | 23.2 | 111 |  |  |  |  |  |  |  |
| CC(C)[C@@H]1NC(=O)[C@H](Cc2ccccc2)NC(=O)[C@H](C(c2ccccc2)c2ccccc2)NC(=O)CCSSC[C@@H](C(=O)N2CCC[C@H]2C(=O)N[C@H](CCCNC(=N)N)C(=O)NCC(N)=O)NC(=O)[C@H](CC(N)=O)NC1=O (stereo in doubt; form 1) [listing 2 of 2 here] | 1.8 | 2.2 | 100 | 4500 |  |  |  |  |  |  |
| CC(C)[C@@H]1NC(=O)[C@H](Cc2ccccc2)NC(=O)[C@H](C(c2ccccc2)c2ccccc2)NC(=O)CCSSC[C@@H](C(=O)N2CCC[C@H]2C(=O)N[C@@H](CCCNC(=N)N)C(=O)NCC(N)=O)NC(=O)[C@H](CC(N)=O)NC1=O | 8 | 2.2 | 100 | 20000 |  | inactive |  |  |  |  |
